Values quoted from earlier work, collected in US6346524B1, “Cancer treatment with temozolomide” (Schering Corporation, priority 1999, dated 2002).

Columns and labels:
[1] = tested on: advanced melanoma; conditions: patients with advanced melanoma; Journal of Clinical Oncology, Vol 13, No. 4, 1995, pp 910-913
[2] = tested on: advanced melanoma; conditions: patients having advanced melanoma; Newlands et al. Br. J. Cancer 65 (2) 287-291 (1992)

SMILES: Cn1nnc2c(C(N)=O)ncn2c1=O [Temozolomide, 3,4-dihydro-3-methyl-4-oxoimidazo-[5,1-d] 1,2,3,4-tetrazin-8-carboximide]
- clinical response achieved, % of patients [1]: 21%
- clinical responses achieved, % of patients [2]: 17%
